Test results reported in PMC8585091, “Central Carbon Metabolism, Sodium-Motive Electron Transfer, and Ammonium Formation by the Vaginal Pathogen Prevotella bivia” (International Journal of Molecular Sciences, 2021).

Biological target: T1, cytochrome bd quinol oxidase (Prevotella bivia, UniProt I4Z6X5)
T1 construct: gene PrebiDRAFT_0174; native complex in DDM-solubilized membranes, not purified; ORFs cyd-2 1143 bp and cyd-1 1536 bp; with Cytochrome bd ubiquinol oxidase subunit II
T1 sequence (I4Z6X5 1-511): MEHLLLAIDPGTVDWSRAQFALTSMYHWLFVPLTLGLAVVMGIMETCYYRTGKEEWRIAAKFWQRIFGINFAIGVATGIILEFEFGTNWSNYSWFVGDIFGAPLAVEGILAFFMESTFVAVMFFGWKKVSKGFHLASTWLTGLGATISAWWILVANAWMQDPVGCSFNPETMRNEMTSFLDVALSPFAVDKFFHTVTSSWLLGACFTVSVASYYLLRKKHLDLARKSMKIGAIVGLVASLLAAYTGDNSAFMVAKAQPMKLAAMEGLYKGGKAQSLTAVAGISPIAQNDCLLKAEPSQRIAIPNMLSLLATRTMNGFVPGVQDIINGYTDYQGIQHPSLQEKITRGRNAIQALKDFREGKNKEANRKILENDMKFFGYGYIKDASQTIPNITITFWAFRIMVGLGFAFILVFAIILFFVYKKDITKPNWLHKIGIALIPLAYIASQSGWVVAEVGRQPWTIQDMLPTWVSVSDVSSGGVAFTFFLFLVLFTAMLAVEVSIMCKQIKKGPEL
T1 sequence (I4Z6X4 1-380 partner): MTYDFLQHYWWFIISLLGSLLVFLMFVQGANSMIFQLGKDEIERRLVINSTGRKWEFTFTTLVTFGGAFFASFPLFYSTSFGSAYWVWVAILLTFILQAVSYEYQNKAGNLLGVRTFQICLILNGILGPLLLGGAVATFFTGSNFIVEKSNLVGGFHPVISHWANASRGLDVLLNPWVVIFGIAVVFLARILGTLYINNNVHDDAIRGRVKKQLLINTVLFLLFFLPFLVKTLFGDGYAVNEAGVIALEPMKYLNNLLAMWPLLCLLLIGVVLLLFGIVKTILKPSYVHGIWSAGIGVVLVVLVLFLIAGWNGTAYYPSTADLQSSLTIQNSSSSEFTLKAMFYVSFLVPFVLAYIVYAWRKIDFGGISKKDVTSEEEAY
Assay: DMNH2 oxidation with H2O2 (peroxidase activity), double-beam photometer
Assay type: biochemical
Settings: solubilized membranes; 200 µM DMNH2, H2O2 as acceptor, pH 7.0, 100 mM NaCl, anoxic

SMILES: Cc1c(C)c(O)c2ccccc2c1O [2,3-dimethyl-1,4-naphthoquinol]
- DMNH2 oxidation with H2O2 (peroxidase activity), double-beam photometer: Solubilized membranes catalyzed the oxidation of the DMNH2 with H2O2 as an electron acceptor
